Counter-ions that a name gives are not always drawn.

Sequence of CK2A1 (CK2α/β) (P68400 whole entry, species assumed): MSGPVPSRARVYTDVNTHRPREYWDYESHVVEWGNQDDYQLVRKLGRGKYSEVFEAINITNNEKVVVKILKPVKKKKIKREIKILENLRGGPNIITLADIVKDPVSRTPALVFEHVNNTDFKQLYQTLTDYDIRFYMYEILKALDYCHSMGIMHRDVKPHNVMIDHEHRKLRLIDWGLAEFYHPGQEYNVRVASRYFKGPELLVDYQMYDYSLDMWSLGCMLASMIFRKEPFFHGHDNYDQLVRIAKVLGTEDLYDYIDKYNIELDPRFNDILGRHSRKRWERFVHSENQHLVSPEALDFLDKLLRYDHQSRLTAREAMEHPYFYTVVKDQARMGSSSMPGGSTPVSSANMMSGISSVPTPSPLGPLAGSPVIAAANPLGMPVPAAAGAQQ
Sequence of CK2A1 (CK2α/β) (P67870 whole entry partner, species assumed): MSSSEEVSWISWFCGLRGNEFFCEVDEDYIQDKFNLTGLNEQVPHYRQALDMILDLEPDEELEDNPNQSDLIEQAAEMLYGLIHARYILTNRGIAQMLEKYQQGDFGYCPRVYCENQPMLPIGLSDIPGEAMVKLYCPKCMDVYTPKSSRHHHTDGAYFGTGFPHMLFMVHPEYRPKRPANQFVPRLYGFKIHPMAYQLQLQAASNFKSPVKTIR

This assay addresses CK2A1 (CK2α/β) (Homo sapiens, UniProt P68400). Put plainly: CK2 kinase assay, CK2A1 (CK2α/β). The format is biochemical. The conditions noted are these: Table A; read-out: CK2A1 (CK2α/β) (IC50).
On to `CN[C@@H]1CCC[C@H](c2cc(C#N)cc(Nc3nc(NC4CC4)c4ncc(C#N)n4n3)c2Cl)C1` [Example 727, 2-({2-chloro-5-cyano-3-[(1S,3R)-3-(methylamino)cyclohexyl]phenyl}amino)-4-(cyclopropylamino)imidazo [2,1-f][1,2,4]triazine-7-carbonitrile], for which the IC50 is 1.23 nM.

Consider `CS(=O)(=O)CC(=O)N1CCN(c2cc(C#N)cc(Nc3nc(NC4CC4)c4ncc(C#N)n4n3)c2Cl)CC1` [Example 89, 2-((2-chloro-5-cyano-3-(4-((methylsulfonyl)acetyl)-1-piperazinyl)phenyl)amino)-4-(cyclopropylamino) imidazo[2,1-f][1,2,4] triazine-7-carbonitrile], for which the IC50 worked out at 2.9 nM.

As for `N#Cc1cc(Nc2nc(NC3CC3)c3ncc(C#N)n3n2)c(Cl)c(N2CCN3CCOC[C@H]3C2)c1` [Example 308, (R)-2-((2-chloro-5-cyano-3-(hexahydropyrazino[2,1-c][1,4]oxazin-8(1H)-yl)phenyl)amino)-4-(cyclopropylamino)imidazo[2,1-f][1,2,4]triazine-7-carbonitrile], the IC50 worked out at 1.67 nM.

With `CCNc1nc(Nc2cc(C#N)cc(N3CC[C@@H](NC(=O)OC)C(NCC(C)(C)O)C3)c2Cl)nn2c(C#N)cnc12` (stereo in doubt) [Example 760, methyl N-[(3S,4R)-1-(2-chloro-5-cyano-3-{[7-cyano-4-(ethylamino)imidazo[2,1-f][1,2,4]triazin-2-yl]amino}phenyl)-3-[(2-hydroxy-2-methylpropyl)amino]piperidin-4-yl] carbamate], the IC50 was found to be 1.2 nM.

Regarding `CCNc1nc(Nc2cc(C#N)cc(N3CC(N4CCN(C)CC4)C3)c2Cl)nn2c(C#N)cnc12` [Example 360, 2-((2-chloro-5-cyano-3-(3-(4-methylpiperazin-1-yl)azetidin-1-yl)phenyl)amino)-4-(ethylamino)imidazo[2,1-f][1,2,4]triazine-7-carbonitrile], the IC50 amounted to 0.73 nM.

Regarding `N#Cc1cc(NCCCO)c(Cl)c(Nc2nc(NC3CC3)c3ncc(C#N)n3n2)c1` [Example 617, 2-((2-chloro-5-cyano-3-((3-hydroxypropyl)amino)phenyl)amino)-4-(cyclopropylamino)imidazo[2,1-f][1,2,4]triazine-7-carbonitrile], the IC50 came to 0.34 nM.

Turning to `N#Cc1cc(Nc2nc(NC3CC3)c3ncc(C#N)n3n2)c(Cl)c(N2CCN(C3CN(C(=O)CCO)C3)CC2)c1` [Example 495, 2-[(2-chloro-5-cyano-3-{4-[1-(3-hydroxypropanoyl)azetidin-3-yl]piperazin-1-yl}phenyl)amino]-4-(cyclopropylamino)imidazo[2,1-f][1,2,4]triazine-7-carbonitrile], the IC50 came out at 4.89 nM.

Turning to `N#Cc1cc(Nc2nc(NC3CC3)c3ncc(C#N)n3n2)c(Cl)c(N2CCN([C@H]3C[C@H](O)C3)CC2)c1` [Example 102, (+/−) 2-((2-chloro-5-cyano-3-(4-(trans-3-hydroxycyclobutyl)-1-piperazinyl)phenyl)amino)-4-(cyclopropylamino) imidazo[2,1-f][1,2,4] triazine-7-carbonitrile], the IC50 came out at 1.1 nM.

Consider `N#Cc1cc(Nc2nc(NC3CC3)c3ncc(C#N)n3n2)c(Cl)c(N2CCC(NC3(CS(=O)(=O)c4ccccc4)COC3)CC2)c1` (racemic) [Example 113, (+/−) 2-((2-chloro-5-cyano-3-(4-((3-((phenylsulfonyl)methyl)-3-oxetanyl)amino)-1-piperidinyl)phenyl)amino)-4-(cyclopropylamino)imidazo [2,1-f][1,2,4]triazine-7-carbonitrile], for which the IC50 is 1.01 nM.

Turning to `N#Cc1cc(Nc2nc(NC3CC3)c3ncc(C#N)n3n2)c(Cl)c(N2CCN([C@H]3CCC[C@@H]3O)CC2)c1` [Example 589, 2-[(2-chloro-5-cyano-3-{4-[(1S,2S)-2-hydroxycyclopentyl]piperazin-1-yl}phenyl)amino]-4-(cyclopropylamino)imidazo [2,1-f][1,2,4]triazine-7-carbonitrile], the IC50 worked out at 7.56 nM.

`CCNc1nc(Nc2cc(C#N)cc(N3CC[C@@H](NC(=O)OC)[C@H](OC(=O)[C@H](N)CC(N)=O)C3)c2Cl)nn2c(C#N)cnc12` [Example 818, (R)-(3R,4R)-1-(2-chloro-5-cyano-3-((7-cyano-4-(ethylamino)imidazo[2,1-f][1,2,4]triazin-2-yl)amino)phenyl)-4-((methoxycarbonyl)amino)piperidin-3-yl 2,4-diamino-4-oxobutanoate hydrochloride]: the IC50 was 2.49 nM.

For the molecule `COC(=O)NCC1CN(c2cc(C#N)cc(Nc3nc(NC4CC4)c4ncc(C#N)n4n3)c2Cl)CCO1` (centres unmarked) [Example 710, methyl N-{[4-(2-chloro-5-cyano-3-{[7-cyano-4-(cyclopropylamino)imidazo[2,1-f][1,2,4]triazin-2-yl]amino}phenyl)morpholin-2-yl]methyl}carbamate], the IC50 is 0.75 nM.

As to `CC(C)(O)CNCC1CN(c2cc(C#N)cc(Nc3nc(NC4CC4)c4ncc(C#N)n4n3)c2Cl)CCO1` (centres unmarked) [Example 709, 2-{[2-chloro-5-cyano-3-(2-{[(2-hydroxy-2-methylpropyl)amino]methyl}morpholin-4-yl)phenyl]amino}-4-(cyclopropylamino)imidazo[2,1-f][1,2,4]triazine-7-carbonitrile], the IC50 came to 2.94 nM.

Turning to `N#Cc1cc(Nc2nc(NC3CC3)c3ncc(C#N)n3n2)c(Cl)c(N2CCN(CC3CNCCO3)CC2)c1` (centres unmarked) [Example 597, 2-({2-chloro-5-cyano-3-[4-(morpholin-2-ylmethyl)piperazin-1-yl]phenyl}amino)-4-(cyclopropylamino)imidazo [2,1-f][1,2,4]triazine-7-carbonitrile], the IC50 came out at 0.62 nM.

For the molecule `COCCN(C)CC1CN(c2cc(C#N)cc(Nc3nc(NC4CC4)c4ncc(C#N)n4n3)c2Cl)CCO1` (centres unmarked) [Example 702, 2-{[2-chloro-5-cyano-3-(2-{[(2-methoxyethyl)(methyl)amino]methyl}morpholin-4-yl)phenyl]amino}-4-(cyclopropylamino)imidazo[2,1-f][1,2,4]triazine-7-carbonitrile], the IC50 is 2.48 nM.

Take `CC(C)(O)C1CCN(c2cc(C#N)cc(Nc3nc(NC4CC4)c4ncc(C#N)n4n3)c2Cl)CC1` [Example 16, 2-((2-chloro-5-cyano-3-(4-(1-hydroxy-1-methylethyl)-1-piperidinyl)phenyl)amino)-4-(cyclopropylamino)imidazo [2,1-f][1,2,4]triazine-7-carbonitrile]: the IC50 was found to be 1 nM.

For `CCNc1nc(Nc2cc(C#N)cc(N3C[C@H](NC(=O)OC)[C@H](OC)C3)c2Cl)nn2c(C#N)cnc12` [Example 334, methyl ((3S,4R)-1-(2-chloro-5-cyano-3-((7-cyano-4-(ethylamino)imidazo[2,1-f][1,2,4]triazin-2-yl)amino)phenyl)-4-methoxy-3-pyrrolidinyl)carbamate], the IC50 is 1.1 nM.

For `N#Cc1cc(Nc2nc(NC3CC3)c3ncc(C#N)n3n2)c(Cl)c(C2(F)CNC2)c1` [Example 659, 2-((2-chloro-5-cyano-3-(3-fluoroazetidin-3-yl)phenyl)amino)-4-(cyclopropylamino)imidazo[2,1-f][1,2,4]triazine-7-carbonitrile], the IC50 worked out at 0.4 nM.

With `CCNc1nc(Nc2cc(C#N)cc(N3CC[C@@H](NC(=O)OC)[C@H](NC4COC4)C3)c2Cl)nn2c(C#N)cnc12` [Example 746, methyl ((3R,4R)-1-(2-chloro-5-cyano-3-((7-cyano-4-(ethylamino)imidazo[2,1-f][1,2,4]triazin-2-yl)amino)phenyl)-3-(oxetan-3-ylamino)piperidin-4-yl)carbamate], the IC50 came out at 1.36 nM.

In the case of `N#Cc1cc(Nc2nc(NC3CC3)c3ncc(C#N)n3n2)c(Cl)c(N2CCC3(CC2)CNC3)c1` [Example 792, 2-((2-chloro-5-cyano-3-(2,7-diazaspiro[3.5]nonan-7-yl)phenyl)amino)-4-(cyclopropylamino)imidazo[2,1-f][1,2,4]triazine-7-carbonitrile], the IC50 stood at 1.03 nM.

In the case of `N#Cc1cc(CCC2CNCCO2)c(Cl)c(Nc2nc(NC3CC3)c3ncc(C#N)n3n2)c1` (racemic) [Example 739, (+/−)-2-((2-chloro-5-cyano-3-(2-(morpholin-2-yl)ethyl)phenyl)amino)-4-(cyclopropylamino) imidazo[2,1-f][1,2,4]triazine-7-carbonitrile], the IC50 was determined as 0.45 nM.

Take `N#Cc1cc(Nc2nc(NC3CC3)c3ncc(C#N)n3n2)c(Cl)c(N2CCN(C(=O)CN3CCC3)CC2)c1` [Example 584, 2-[(3-{4-[2-(azetidin-1-yl)acetyl]piperazin-1-yl}-2-chloro-5-cyanophenyl)amino]-4-(cyclopropylamino)imidazo [2,1-f][1,2,4]triazine-7-carbonitrile]: the IC50 is 1.54 nM.

For the molecule `N#Cc1cc(Nc2nc(NC3CC3)c3ncc(C#N)n3n2)c(Cl)c(N2CCC(O)CC2)c1` [Example 39, 2-((2-chloro-5-cyano-3-(4-hydroxy-1-piperidinyl)phenyl)amino)-4-(cyclopropylamino)imidazo [2,1-f][1,2,4]triazine-7-carbonitrile], the IC50 came out at 0.46 nM.

For the molecule `CC1(N)CCN(c2cc(C#N)cc(Nc3nc(NC4CC4)c4ncc(C#N)n4n3)c2Cl)CC1` [Example 18, 2-((3-(4-amino-4-methyl-1-piperidinyl)-2-chloro-5-cyanophenyl)amino)-4-(cyclopropylamino)imidazo [2,1-f][1,2,4]triazine-7-carbonitrile], the IC50 amounted to 0.55 nM.

In the case of `COC(=O)N1CC(N2CCN(c3cc(OC(F)F)cc(Nc4nc(NC5CC5)c5ncc(C#N)n5n4)c3Cl)CC2)C1` [Example 562, methyl 3-(4-(2-chloro-3-((7-cyano-4-(cyclopropylamino)imidazo[2,1-f][1,2,4]triazin-2-yl)amino)-5-(difluoromethoxy)phenyl)piperazin-1-yl)azetidine-1-carboxylate], the IC50 came to 3.33 nM.

Consider `N#Cc1cc(Nc2nc(NC3CC3)c3ncc(C#N)n3n2)c(Cl)c(N2CCN(C(=O)C3CNCCO3)CC2)c1` (racemic) [Example 94, (+/−) 2-(2-chloro-5-cyano-3-(4-(morpholine-2-carbonyl)piperazin-1-yl)phenylamino)-4-(cyclopropylamino) imidazo[1,2-f][1,2,4] triazine-7-carbonitrile], for which the IC50 worked out at 0.96 nM.

These data come from patent US9273057B2 (Bristol-Myers Squibb Company, priority 2012, dated 2016).
